Results on two molecules are retold here after ChEMBL document CHEMBL3779781, “New direct inhibitors of InhA with antimycobacterial activity based on a tetrahydropyran scaffold” (Eur J Med Chem, 2016).

The subject of experiment [1] is Mycobacterium tuberculosis. Nature of the experiment: Ratio of MIC for isoniazid resistant Mycobacterium tuberculosis H37Rv clinical isolate 5 harboring katG S315T mutant to MIC for Mycobacterium tuberculosis H37Rv. The class given is functional.
Experiment [2] relates to Mycobacterium tuberculosis. Nature of the experiment: Antimycobacterial activity against isoniazid resistant Mycobacterium tuberculosis H37Rv clinical isolate 5 harboring katG S315T mutant. The class given is functional, H37Rv isolate 5.
Experiment [3] relates to Mycobacterium tuberculosis. The experiment can be described thus: Antimycobacterial activity against isoniazid resistant Mycobacterium tuberculosis H37Rv clinical isolate 2 harboring InhA promoter C-15T mutant. The class given is functional, H37Rv isolate 2.
Experiment [4] has as its system Mycobacterium tuberculosis. The experiment can be described thus: Antimycobacterial activity against isoniazid resistant Mycobacterium tuberculosis H37Rv clinical isolate 1 harboring katG S315T mutant. The class given is functional, H37Rv isolate 1.
In experiment [5] the test system is Mycobacterium tuberculosis. The experiment can be described thus: Ratio of MIC for isoniazid resistant Mycobacterium tuberculosis H37Rv clinical isolate 7 harboring katG S315T mutant to MIC for Mycobacterium tuberculosis H37Rv. The class given is functional.
Experiment [6] relates to Mycobacterium tuberculosis. Nature of the experiment: Antimycobacterial activity against isoniazid resistant Mycobacterium tuberculosis H37Rv clinical isolate 4 harboring katG S315T mutant. The class given is functional, H37Rv isolate 4.
For experiment [7], the system named is Mycobacterium tuberculosis. The experiment can be described thus: Ratio of MIC for isoniazid resistant Mycobacterium tuberculosis H37Rv clinical isolate 6 harboring InhA promoter C-15T mutant to MIC for Mycobacterium tuberculosis H37Rv. The class given is functional.
Experiment [8] deals with Mycobacterium tuberculosis. The experiment can be described thus: Ratio of MIC for isoniazid resistant Mycobacterium tuberculosis H37Rv clinical isolate 2 harboring InhA promoter C-15T mutant to MIC for Mycobacterium tuberculosis H37Rv. The format is functional.
The test system of experiment [9] is Mycobacterium tuberculosis. Nature of the experiment: Antimycobacterial activity against isoniazid resistant Mycobacterium tuberculosis H37Rv clinical isolate 3 harboring InhA promoter C-15T mutant. The class given is functional, H37Rv isolate 3.
The subject of experiment [10] is Mycobacterium tuberculosis. Nature of the experiment: Ratio of MIC for isoniazid resistant Mycobacterium tuberculosis H37Rv clinical isolate 4 harboring katG S315T mutant to MIC for Mycobacterium tuberculosis H37Rv. The format is functional.
Experiment [11] deals with Mycobacterium tuberculosis. The experiment can be described thus: Ratio of MIC for isoniazid resistant Mycobacterium tuberculosis H37Rv clinical isolate 3 harboring InhA promoter C-15T mutant to MIC for Mycobacterium tuberculosis H37Rv. The class given is functional.
Experiment [12] relates to Mycobacterium tuberculosis. Nature of the experiment: Ratio of MIC for isoniazid resistant Mycobacterium tuberculosis H37Rv clinical isolate 1 harboring katG S315T mutant to MIC for Mycobacterium tuberculosis H37Rv. The format is functional.
Experiment [13] deals with Mycobacterium tuberculosis. The experiment can be described thus: Antimycobacterial activity against isoniazid resistant Mycobacterium tuberculosis H37Rv clinical isolate 7 harboring katG S315T mutant. The class given is functional, H37Rv isolate 7.
Experiment [14] deals with Mycobacterium tuberculosis. The experiment can be described thus: Antimycobacterial activity against isoniazid resistant Mycobacterium tuberculosis H37Rv clinical isolate 6 harboring InhA promoter C-15T mutant. The format is functional, H37Rv isolate 6.

The structures appear in SMILES notation.

The term MIC denotes the smallest concentration in the dilution series that meets the test's criterion for growth inhibition. Turning to `NNC(=O)c1ccncc1` [ISONIAZID], the Ratio came out at 25 in experiment [1]; 400 in experiment [5]; 3.1 in [7]; 6.25 in experiment [8]; 50 in experiment [10]; 3.1 in experiment [11]. Further, the Ratio in [12] is 100. Further, the MIC in [2] stood at 12.5 µg/mL; in experiment [3] it was 3.1 µg/mL; in experiment [4], 50 µg/mL; in experiment [6] it was 25 µg/mL; in [9], 1.56 µg/mL; in experiment [13] it was 200 µg/mL. Also, in [14], the MIC turned out to be 1.56 µg/mL.

On to `Cc1cc(C)n(Cc2ccc(C(=O)NCC3(c4nc(-c5ccccc5)cs4)CCOCC3)cc2)n1`, for which the Ratio in experiment [1] worked out at 8; in [5] it was 2; in experiment [7], 8; in experiment [8], 8; in experiment [10] it was 1; in experiment [11] it was 8. In addition, the Ratio in experiment [12] is listed as 2. Further, the MIC turned out to be 62.5 µM in experiment [2]; 62.5 µM in experiment [3]; 15.6 µM in [4]; 7.8 µM in experiment [6]; 62.5 µM in experiment [9]; 15.6 µM in experiment [13]. Further, the MIC in experiment [14] came out at 62.5 µM.
